The values that follow come from publication PMC11152574, “A parameterized two-domain thermodynamic model explains diverse mutational effects on protein allostery” (eLife, 2024).

The assay deals with TetR(B) (Escherichia coli, UniProt P04483). Put plainly: GFP reporter induction in E. coli, Bayesian fit of two-domain thermodynamic model. Format: cell-based. Particulars: 37 °C; LB culture; apparent Kd inferred from in vivo induction curve, K of active LBD set to 1 nM; order-of-magnitude model estimate, not a direct binding measurement; unreliable. The procedure:
GFP reporter induction in E. coli, Bayesian fit of two-domain thermodynamic model on TetR(B) | apparent dissociation constant of WT TetR to ligand is calculated as […]

Sequence of TetR(B) (P04483 whole entry, looked up, the tested form may be a part): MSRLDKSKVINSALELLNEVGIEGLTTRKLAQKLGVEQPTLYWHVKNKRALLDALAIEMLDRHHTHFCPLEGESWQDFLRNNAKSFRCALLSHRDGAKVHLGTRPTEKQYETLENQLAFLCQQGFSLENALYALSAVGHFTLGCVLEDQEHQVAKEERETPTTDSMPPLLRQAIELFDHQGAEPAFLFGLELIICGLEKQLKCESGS

Consider `Cc1c2c(c(O)c3c(O)cccc13)C(=O)[C@]1(O)C(=O)C(C(N)=O)=C(O)[C@@H](N(C)C)[C@@H]1C2` [anhydrotetracycline], for which the “K apparent WT” value was 27.1 nM.
